Data from PubChem BioAssay (NCI).
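Tested at 5 concentrations; 48 h exposure; 96-well plates; endpoints linearly interpolated, else capped at highest concentration. TGI: total growth inhibition.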 Activity calls are given as the source filed them. Rule as the data show it: active = GI50 below about 0.43 µM; inactive = the rest.

Assays:
Assay in all cases: inhibition of tumour cell growth, NCI panel, 48 h
K-562 leukemia = tested on: K-562 leukemia
SK-OV-3 ovarian = tested on: SK-OV-3 ovarian
HT29 colon = tested on: HT29 colon
SK-MEL-2 melanoma = tested on: SK-MEL-2 melanoma
NCI-H226 lung = tested on: NCI-H226 lung
SF-539 CNS = tested on: SF-539 CNS
MOLT-4 leukemia = tested on: MOLT-4 leukemia
DLD-1 colon = tested on: DLD-1 colon
SF-268 CNS = tested on: SF-268 CNS
U251 CNS = tested on: U251 CNS
OVCAR-4 ovarian = tested on: OVCAR-4 ovarian
OVCAR-5 ovarian = tested on: OVCAR-5 ovarian
DMS 273 small cell lung = tested on: DMS 273 small cell lung
M14 melanoma = tested on: M14 melanoma
SN12C renal = tested on: SN12C renal
RXF 393 renal = tested on: RXF 393 renal
LOX IMVI melanoma = tested on: LOX IMVI melanoma
LXFL 529 NSCLC = tested on: LXFL 529 NSCLC
IGROV1 ovarian = tested on: IGROV1 ovarian
HCT-15 colon = tested on: HCT-15 colon
UACC-257 melanoma = tested on: UACC-257 melanoma
CAKI-1 renal = tested on: CAKI-1 renal
HOP-62 NSCLC = tested on: HOP-62 NSCLC
XF 498 CNS = tested on: XF 498 CNS
HL-60(TB) leukemia = tested on: HL-60(TB) leukemia
SNB-19 CNS = tested on: SNB-19 CNS
ACHN renal = tested on: ACHN renal
UO-31 renal = tested on: UO-31 renal
A549 NSCLC = tested on: A549 NSCLC
OVCAR-8 ovarian = tested on: OVCAR-8 ovarian
SNB-75 CNS = tested on: SNB-75 CNS
786-0 renal = tested on: 786-0 renal
SF-295 CNS = tested on: SF-295 CNS
RPMI-8226 leukemia = tested on: RPMI-8226 leukemia
CCRF-CEM leukemia = tested on: CCRF-CEM leukemia
TK-10 renal = tested on: TK-10 renal
OVCAR-3 ovarian = tested on: OVCAR-3 ovarian
COLO 205 colon = tested on: COLO 205 colon
SR leukemia = tested on: SR leukemia
KM20L2 colon = tested on: KM20L2 colon
UACC-62 melanoma = tested on: UACC-62 melanoma
SNB-78 CNS = tested on: SNB-78 CNS
HOP-92 NSCLC = tested on: HOP-92 NSCLC
RXF-631 renal = tested on: RXF-631 renal
NCI-H522 lung = tested on: NCI-H522 lung
NCI-H460 lung = tested on: NCI-H460 lung
SW-620 colon = tested on: SW-620 colon
MALME-3M melanoma = tested on: MALME-3M melanoma
NCI-H23 lung = tested on: NCI-H23 lung
EKVX NSCLC = tested on: EKVX NSCLC
KM12 colon = tested on: KM12 colon
M19-MEL melanoma = tested on: M19-MEL melanoma
SK-MEL-28 melanoma = tested on: SK-MEL-28 melanoma
A498 renal = tested on: A498 renal
SK-MEL-5 melanoma = tested on: SK-MEL-5 melanoma
HCC-2998 colon = tested on: HCC-2998 colon
DMS 114 small cell lung = tested on: DMS 114 small cell lung
HOP-18 NSCLC = tested on: HOP-18 NSCLC
HCT-116 colon = tested on: HCT-116 colon

C[C@@]1(CO)O[C@H]1CCC#C[Si](C)(C)C
outcome (K-562 leukemia): inactive
outcome (SK-OV-3 ovarian): inactive
outcome (HT29 colon): inactive
outcome (SK-MEL-2 melanoma): inactive
outcome (NCI-H226 lung): inactive
outcome (SF-539 CNS): inactive
outcome (MOLT-4 leukemia): inactive
outcome (DLD-1 colon): inactive
outcome (SF-268 CNS): inactive
outcome (U251 CNS): inactive
outcome (OVCAR-4 ovarian): inactive
outcome (OVCAR-5 ovarian): inactive
outcome (DMS 273 small cell lung): inactive
outcome (M14 melanoma): inactive
outcome (SN12C renal): inactive
outcome (RXF 393 renal): inactive
outcome (LOX IMVI melanoma): inactive
outcome (LXFL 529 NSCLC): inactive
outcome (IGROV1 ovarian): inactive
outcome (HCT-15 colon): inactive
outcome (UACC-257 melanoma): inactive
outcome (CAKI-1 renal): inactive
outcome (HOP-62 NSCLC): inactive
outcome (XF 498 CNS): inactive
outcome (HL-60(TB) leukemia): inactive
outcome (SNB-19 CNS): inactive
outcome (ACHN renal): inactive
outcome (UO-31 renal): inactive
outcome (A549 NSCLC): inactive
outcome (OVCAR-8 ovarian): inactive
outcome (SNB-75 CNS): inactive
outcome (786-0 renal): inactive
outcome (SF-295 CNS): inactive
outcome (RPMI-8226 leukemia): inactive
outcome (CCRF-CEM leukemia): inactive
outcome (TK-10 renal): inactive
outcome (OVCAR-3 ovarian): inactive
outcome (COLO 205 colon): inactive
outcome (SR leukemia): inactive
outcome (KM20L2 colon): inactive
outcome (UACC-62 melanoma): inactive
outcome (SNB-78 CNS): inactive
outcome (HOP-92 NSCLC): inactive
outcome (RXF-631 renal): inactive
outcome (NCI-H522 lung): inactive
outcome (NCI-H460 lung): inactive
outcome (SW-620 colon): inactive
outcome (MALME-3M melanoma): inactive
outcome (NCI-H23 lung): inactive
outcome (EKVX NSCLC): inactive
outcome (KM12 colon): inactive

COc1cc(/C=N/c2nncs2)ccc1O
TGI (M19-MEL melanoma): > 100 µM
TGI (K-562 leukemia): > 100 µM
TGI (SK-OV-3 ovarian): > 100 µM
TGI (SK-MEL-28 melanoma): > 100 µM
TGI (HT29 colon): > 100 µM
TGI (SK-MEL-2 melanoma): > 100 µM
TGI (NCI-H226 lung): > 100 µM
TGI (SF-539 CNS): > 100 µM
TGI (A498 renal): > 100 µM
TGI (MOLT-4 leukemia): > 100 µM
TGI (SF-268 CNS): > 100 µM
TGI (SK-MEL-5 melanoma): > 100 µM
TGI (U251 CNS): > 100 µM
TGI (OVCAR-4 ovarian): > 100 µM
TGI (OVCAR-5 ovarian): > 100 µM
TGI (DMS 273 small cell lung): > 100 µM
TGI (M14 melanoma): > 100 µM
TGI (SN12C renal): > 100 µM
TGI (RXF 393 renal): > 100 µM
TGI (LXFL 529 NSCLC): > 100 µM
TGI (HCC-2998 colon): > 100 µM
TGI (IGROV1 ovarian): > 100 µM
TGI (HCT-15 colon): > 100 µM
TGI (UACC-257 melanoma): > 100 µM
TGI (CAKI-1 renal): > 100 µM
TGI (HOP-62 NSCLC): > 100 µM
TGI (XF 498 CNS): > 100 µM
TGI (HL-60(TB) leukemia): > 100 µM
TGI (SNB-19 CNS): > 100 µM
TGI (ACHN renal): > 100 µM
TGI (UO-31 renal): > 100 µM
TGI (A549 NSCLC): > 100 µM
TGI (OVCAR-8 ovarian): > 100 µM
TGI (SNB-75 CNS): > 100 µM
TGI (786-0 renal): > 100 µM
TGI (SF-295 CNS): > 100 µM
TGI (DMS 114 small cell lung): > 100 µM
TGI (RPMI-8226 leukemia): > 100 µM
TGI (CCRF-CEM leukemia): > 100 µM
TGI (TK-10 renal): > 100 µM
TGI (HOP-18 NSCLC): > 100 µM
TGI (SR leukemia): > 100 µM
TGI (KM20L2 colon): > 100 µM
TGI (UACC-62 melanoma): > 100 µM
TGI (SNB-78 CNS): > 100 µM
TGI (HOP-92 NSCLC): > 100 µM
TGI (RXF-631 renal): > 100 µM
TGI (NCI-H460 lung): > 100 µM
TGI (SW-620 colon): > 100 µM
TGI (HCT-116 colon): > 100 µM
TGI (MALME-3M melanoma): > 100 µM
TGI (NCI-H23 lung): > 100 µM
TGI (EKVX NSCLC): > 100 µM
TGI (KM12 colon): > 100 µM

COc1cccc(C2C(C(=O)O)=C(CO)Oc3cc4c(cc32)OCO4)c1OC (stereo not given)
TGI (M19-MEL melanoma): > 100 µM
TGI (K-562 leukemia): > 100 µM
TGI (SK-OV-3 ovarian): > 100 µM
TGI (SK-MEL-28 melanoma): > 100 µM
TGI (SK-MEL-2 melanoma): > 100 µM
TGI (NCI-H226 lung): > 100 µM
TGI (SF-539 CNS): > 100 µM
TGI (A498 renal): > 100 µM
TGI (MOLT-4 leukemia): > 100 µM
TGI (DLD-1 colon): > 100 µM
TGI (SF-268 CNS): > 100 µM
TGI (SK-MEL-5 melanoma): > 100 µM
TGI (U251 CNS): > 100 µM
TGI (M14 melanoma): > 100 µM
TGI (SN12C renal): > 100 µM
TGI (LOX IMVI melanoma): > 100 µM
TGI (LXFL 529 NSCLC): > 100 µM
TGI (IGROV1 ovarian): > 100 µM
TGI (HCT-15 colon): > 100 µM
TGI (CAKI-1 renal): > 100 µM
TGI (XF 498 CNS): 94.7 µM
TGI (HL-60(TB) leukemia): > 100 µM
TGI (SNB-19 CNS): > 100 µM
TGI (ACHN renal): > 100 µM
TGI (UO-31 renal): > 100 µM
TGI (OVCAR-8 ovarian): > 100 µM
TGI (SNB-75 CNS): > 100 µM
TGI (SF-295 CNS): > 100 µM
TGI (RPMI-8226 leukemia): > 100 µM
TGI (CCRF-CEM leukemia): > 100 µM
TGI (TK-10 renal): > 100 µM
TGI (HOP-18 NSCLC): > 100 µM
TGI (OVCAR-3 ovarian): > 100 µM
TGI (COLO 205 colon): > 100 µM
TGI (KM20L2 colon): > 100 µM
TGI (UACC-62 melanoma): > 100 µM
TGI (SNB-78 CNS): > 100 µM
TGI (HOP-92 NSCLC): > 100 µM
TGI (RXF-631 renal): > 100 µM
TGI (NCI-H522 lung): > 100 µM
TGI (NCI-H460 lung): > 100 µM
TGI (SW-620 colon): > 100 µM
TGI (MALME-3M melanoma): > 100 µM
TGI (NCI-H23 lung): > 100 µM
TGI (EKVX NSCLC): > 100 µM
